# Entries after “also recorded” stand apart in the source; their conditions may differ. Read-outs that look alike come from different tables or passages of the source.
# What was measured:
# [1] = Oxidation of 2-butanol to 2-butanone by cell-free soluble extracts of C1-utilizing microbes; type: biochemical
# Experimental: The clear supernatant contained the SADH activity. […] The reaction was started by the addition of substrate.
# Catalytic activity was also assayed by fluorescence spectrophotometry.
# [2] = tested on: secondary alcohol dehydrogenase; experiment: Purified yeast secondary alcohol dehydrogenase: substrates, electron acceptors, inhibitors, stoichiometry; type: biochemical, Pichia sp. NRRL Y-11,328
# Experimental: Large scale cultures of Pichia sp. NRRL Y-11,328 were grown with aeration at 30° C. in a 14-liter New Brunswick f fermentor in a mineral salt medium containing methanol (0.4%, v/v) as the sole carbon source. The cells (200 g., wet weight) were suspended in […] sodium phosphate buffer, pH 7.0, containing 1 mM dithiothreitol (buffer A), and crude extracts were prepared as described previously. To the crude extracts, 18 ml. of protamine sulfate solution [2% solution in 0.1 M tris (hydroxymethyl) aminomethane (tris) base] was added dropwise with continuous stirring. After standing for 30 min., the extracts were centrifuged at 20,000×g. for 60 min. The supernatant solution was fractionated with solid ammonium sulfate. Extracts were brought to 50% of saturation with respect to ammonium sulfate by addition of 313 g. of the salt per liter of extract. Precipitated proteins was removed by centrifugation, and 137 g. of ammonium sulfate was added per liter of the supernatant liquid to bring it to 70% of saturation. Material precipitating between 50 and 70% of saturation was collected by centrifugation and dissolved in buffer A. This preparation was dialyzed overnight against buffer A, and the dialyzed material was applied to a DEAE-cellulose column (5×40 cm) that had been equilibrated with buffer A. The sample was washed with 200 ml. of buffer A and eluted with 2 liters of buffer A that contained NaCl in a linear gradient running from a concentration of 0 to 0.5 M. Fractions of 15 ml. were collected. Fractions containing secondary alcohol dehydrogenase activity were pooled and were termed DEAE-cellulose eluate. The DEAE-cellulose eluate was concentrated by ammonium sulfate fractionation.
# Secondary alcohol dehydrogenase activity was measured spectrophotometrically at 340 nm with a NAD^+ as an electron acceptor. The reaction mixture, in a total 3.0 ml., contained 50 mM phosphate buffer, pH 8.0, 5μ moles NAD^+, crude extracts, and subtrate. The reactions were started by addition of 100 μl of 0.1 M substrate and the rate of NAD^+ reduction was measured. Protein concentration was determined by the method of Lowry et al.
# The substrate specificity of the purified secondary alcohol dehydrogenase was examined spectrophotometrically.
# [3] = tested on: P(40) particulate fraction of Methylosinus sp. (CRL-15, NRRL B-11,202); experiment: Effect of metals on propylene epoxidation and methane hydroxylation by P(40) fraction; type: biochemical; details: metal 10^-3 M; for Methane-Oxidizing Activity in presence of metal: control 4.0; for Propylene-Oxidizing Activity in presence of metal: control […]
# Experimental: (§1) The oxidation of methane and propylene by particulate [(P)40 and(P)80] fractions and soluble [S(80)] fraction was measured at 30° C. by estimating the production of methanol and propylene oxide, respectively. The reaction mixtures contained in 1.0 ml: 150 mM potassium phosphate buffer, pH 7.0 containing 5 mM MgCl2, 0.6 ml; 10 μmoles NADH, and cellular fraction.
# Reaction mixtures were contained in 10 ml vials at 4° C. Vials were sealed with rubber caps. The gaseous phase in the vials was removed using vacuum and then was replaced with a gas mixture of methane or propylene and oxygen at a 1:1, v/v ratio. Oxidation of other gaseous n-alkanes and n-alkenes was examined as described above. For liquid substrates, 10 μl of substrate was used directly.
# Since the methane mono-oxygenase from methane-utilizing bacteria is a copper or iron-containing protein (Tonge et al., J. Biochem., 161: 333-344 (1977)), we have examined the effect of copper and iron salts on the oxidation of methane and propylene by the P(40) particulate fraction of Methylosinus sp. (CRL-15, NRRL B-11,202). The rate of hydroxylation of methane to methanol and epoxidation of propylene to propylene oxide was increased twofold in the presence of added copper salts (Table XII).
# [4] = tested on: methanol-grown Methylococcus capsulatus CRL M1 (NRRL B-11,219); experiment: Effect of metal-chelating agents and other inhibitors on production of 2-butanone by cell suspensions; type: cell-based; details: NRRLB11, read-out: Inhibition (%) of production of 2-butanone
# [5] = tested on: secondary alcohol dehydrogenase (SADH); experiment: Purified secondary alcohol dehydrogenase activity (formation of reduced NAD); type: biochemical, Pseudomonas sp. ATCC 21439
# Experimental: Secondary alcohol dehydrogenase (SADH) from an obligate methanol utilizer, Pseudomonas sp. ATCC 21439 was purified as follows. […] 0.05 M sodium phosphate buffer, pH 7.0 with 0.5 mM dithiothretol (buffer A) and were disrupted sonically (5×1 min.). The crude extract was separated by centrifugation. The crude extract was heat-treated at 50° C. in a water bath for 10 minutes. The resulting precipitate was removed by centrifugation. To the supernatant solution, 25 ml of protamine sulfate solution (2% solution in 0.1 M Tris base) was added dropwise with continuous stirring. After standing for 30 minutes, the extract was centrifuged. The supernatant solution was fractionated with solid ammonium sulfate. The material precipitating between 30 and 60% saturation was collected and was dialized overnight against buffer A. The The dialized material was applied to a DEAE-cellulose column (3 cm by 35 cm) that had been equilibrated with buffer A. The secondary alcohol dehydrogenase activity was eluted in the void volume. This DEAE-cellulose eluate was concentrated by ammonium sulfate fractionation. Material precipitating between 30 and 50% ammonium sulfate saturation was collected by centrifugation and dialyzed overnight against A. This fraction was further washed and filtered through an Amicon unit with XM 50 membrane. The concentrated fraction (6 ml) inside the Amicon unit was applied to an Affi-Gel Blue column (0.8 cm×18 cm) which had been equilibrated with buffer A for affinity chromatography. The column was washed overnight with buffer A (0.18 ml./min.) and then was eluted with buffer A containing 5 mM NAD. Each 1 ml. fraction was collected.
# The purified secondary alcohol dehydrogenase enzyme (SADH) may be used directly for converting C3 -C6 secondary alcohols to the corresponding methyl ketones by the procedures described above; however, a source of NAD^+ must be added to the reaction medium. One can determine the NAD-linked secondary alcohol dehydrogenase activity with a fluorescence spectrophotometer (Perkin Elmer, Model MPF 44A) by following the formation of reduced NAD (Ex 340 nm, Em 460 nm). The assay system (3 ml.) will typically contain: sodium phosphate buffer pH 7.0, 150 μmol; NAD 1.0 μmol; a given amount of enzyme preparation; and 20 μmol secondary alcohol. The reaction is started by the addition of secondary alcohol. One unit of SADH enzyme activity represents the reduction of one nmole NAD per minute.
# The effect of metal-chelating agents and thioreagents on the activity of the purified SADH enzyme were studied. […] The possibility of ethanol or n-propanol as an inhibitor was studied.
# [6] = tested on: P(40) particulate fraction of Methylosinus sp. (CRL-15, NRRL B-11,202); experiment: Effect of inhibitors on propylene epoxidation and methane hydroxylation by P(40) fraction; type: biochemical; details: inhibitor 10^-3 M
# Experimental: as §1
# Reaction mixtures were contained in 10 ml vials at 4° C. Vials were sealed with rubber caps. The gaseous phase in the vials was removed using vacuum and then was replaced with a gas mixture of methane or propylene and oxygen at a 1:1, v/v ratio. Oxidation of other gaseous n-alkanes and n-alkenes was examined as described above. For liquid substrates, 10 μl of substrate was used directly. Vials were then incubated at 30° C. on a rotary shaker at 200 RPM.
# It has been reported that the oxidation of methane by cell suspensions of methane-utilizing bacteria was inhibited by various metal-binding or metal-chelating agents (Patel et al., J. Bacteriol. 126: 1017-1019 (1976)). […] (CRL-15, NRRL B-11,202) was examined.
# [7] = tested on: cell-free particulate fractions derived from the methylotrophic microorganisms; experiment: Conversion of C3-C6 n-alkanes to sec. alcohols by cell-free particulate fractions: inhibitors and electron donors; type: biochemical
# Description: The conditions for preparing the cell suspensions or the cell-free particulate fractions from methane-grown methylotroph microorganisms is the same as described above. […] Tables XXV and XXVI show the conversion of C3 -C6 n-alkanes to the corresponding secondary alcohols using cell suspensions and cell-free particulate fractions, respectively, of methane-grown methylotroph microorganisms.
# [8] = tested on: P(40) particulate fraction of Methylosinus sp. (CRL-15, NRRL B-11,202); experiment: Oxidation of n-alkenes and n-alkanes by P(40) particulate fraction; type: biochemical
# [9] = tested on: Methylococcus capsulatus (CRL Ml, NRRL B-11,219); experiment: Effect of inhibitors on epoxidation of propylene and hydroxylation of methane, cell-containing enzyme preparation; type: cell-based; details: cell suspension of methane-grown strain
# [10] = tested on: P(40) particulate fraction of Methylosinus sp. (CRL-15, NRRL B-11,202); experiment: Stoichiometry of propylene epoxidation and methane hydroxylation by P(40) fraction; type: biochemical; details: 5.0 μmoles substrate
# Experimental: The particulate P(40) fraction of Methylosinus sp. (CRL-15, NRRL B-11,202) was used to determine the stoichiometry of hydroxylation and epoxidation reactions. The stoichiometry of methane or propylene-dependant NADH oxidation, oxygen consumption and product formation was approximately 1:1:1 Table XIV. This is consistent with methane or propylene oxygenation being catalyzed by a mono-oxygenase.
# ^a Under identical condition of reaction, the estimation of NADH
# oxidized was carried out spectrophotometrically, the estimation of oxygen
# consumed was measured polarographically, and estimation of product formed
# was carried out by gas chromatography.
molecule,measurement,setting,value
O=C1C(Cl)=CC(=Nc2ccc(O)cc2)C=C1Cl [dichlorophenol indophenol],cofactor for oxidation of secondary alcohols in the cell-free system,[1],not effective
same,electron acceptor for the purified enzyme,[2],could not act as electron carrier
[Cl][Cu] [Cuprous Chloride],Methane-Oxidizing Activity in presence of metal,[3],7.2 μmoles/hr/mg protein
same,Propylene-Oxidizing Activity in presence of metal,[3],9.2 μmoles/hr/mg protein
O=S(=O)([O-])[O-].[Cu+2] [Cupric Sulfate],Methane-Oxidizing Activity in presence of metal,[3],7.1 μmoles/hr/mg protein
same,Propylene-Oxidizing Activity in presence of metal,[3],9.0 μmoles/hr/mg protein
same,inhibition of secondary alcohol dehydrogenase activity,[2],inhibited
[N-]=[N+]=[N-] [Sodium azide],inhibition at 1000 µM,[4],10%
same,% inhibition of SADH activity,"[5]; purified SADH, each inhibitor 1 mM, measured spectrofluorometrically",10%
NC(=O)c1ccc[n+]([C@@H]2O[C@H](COP(=O)(O)OP(=O)(O)OC[C@H]3O[C@@H](n4cnc5c(N)ncnc54)[C@H](OP(=O)(O)O)[C@@H]3O)[C@@H](O)[C@H]2O)c1 [NADP],cofactor for oxidation of secondary alcohols in the cell-free system,[1],not effective
same,electron acceptor for the purified enzyme,[2],could not act as electron carrier
"Cc1cc2nc3c(=O)[nH]c(=O)nc-3n(C[C@H](O)[C@H](O)[C@H](O)COP(=O)(O)OP(=O)(O)OC[C@H]3O[C@@H](n4cnc5c(N)ncnc54)[C@H](O)[C@@H]3O)c2cc1C [FAD, flavin adenine dinucleotide]",cofactor for oxidation of secondary alcohols in the cell-free system,[1],not effective
same,electron acceptor for the purified enzyme,[2],could not act as electron carrier
[Cl][Fe]([Cl])[Cl] [Ferric Chloride],Methane-Oxidizing Activity in presence of metal,[3],4.8 μmoles/hr/mg protein
same,Propylene-Oxidizing Activity in presence of metal,[3],5.8 μmoles/hr/mg protein
Oc1cccc2cccnc12 [8-Hydroxyquinoline],"% Inhibition, Methane-Hydroxylating Activity",[6],80%
same,"% Inhibition, Propylene-Epoxidizing Activity",[6],75%
same,inhibition of the conversion of the n-alkanes to the sec. alcohols,[7],inhibited
C[n+]1c2ccccc2nc2ccccc21 [phenazine methosulfate],cofactor for oxidation of secondary alcohols in the cell-free system,[1],not effective
same,electron acceptor for the purified enzyme,[2],could not act as electron carrier
N[C@@H](CCC(=O)N[C@@H](CS)C(=O)NCC(=O)O)C(=O)O [glutathione],cofactor for oxidation of secondary alcohols in the cell-free system,[1],not effective
same,inhibition of secondary alcohol dehydrogenase activity,[2],strongly inhibited
"NC(=O)c1ccc[n+]([C@@H]2O[C@H](COP(=O)([O-])OP(=O)(O)OC[C@H]3O[C@@H](n4cnc5c(N)ncnc54)[C@H](O)[C@@H]3O)[C@@H](O)[C@H]2O)c1 [NAD, Nicotinamide adenine dinucleotide]",cofactor for oxidation of secondary alcohols in the cell-free system,[1],requirement; also recorded: required
same,Km,"[5]; Line-Weaver-Burk plot, read-out: Michaelis constants (Km) of SADH",11 µM
same,Km,"[5]; pure SADH, read-out: Km values",11 µM
same,electron acceptor for the purified enzyme,[2],required
NC(=O)C1=CN([C@@H]2O[C@H](COP(=O)(O)OP(=O)(O)OC[C@H]3O[C@@H](n4cnc5c(N)ncnc54)[C@H](OP(=O)(O)O)[C@@H]3O)[C@@H](O)[C@H]2O)C=CC1 [NAD(P)H],cofactor for oxidation of secondary alcohols in the cell-free system,[1],not effective
Ferrous Sulfate,Methane-Oxidizing Activity in presence of metal,[3],4.8 μmoles/hr/mg protein
same,Propylene-Oxidizing Activity in presence of metal,[3],5.9 μmoles/hr/mg protein
NNC(N)=S [Thiosemicarbazide],"% Inhibition, Methane-Hydroxylating Activity",[6],100%
same,"% Inhibition, Propylene-Epoxidizing Activity",[6],97%
same,inhibition of the conversion of the n-alkanes to the sec. alcohols,[7],inhibited
C [Methane],Propylene Oxide Produced,"[8]; substrate competition, gas phase as labelled",0 μmoles/hr/mg. protein
same,Rate of Product Formation,"[8]; substrate oxidized to its epoxide or alcohol, 30° C.",4.8 μ moles/hr/mg of protein
same,inhibition of epoxidation of propylene to propylene oxide in the presence of methane,[9],50%
same,NADH Oxidized,[10],4.8 µmol
same,O2 Consumed,[10],4.6 µmol
same,Product formed,[10],4.2 µmol

# Reference: patent publication US4241184A, “Secondary alcohol dehydrogenase enzyme and use thereof” (priority 1979, dated 1980)
